Values of other authors in article PMC5354290 (PLoS ONE, 2017).

Tests used:
[1] = tested on: rat model of spared nerve injury; details: in vivo, iv
[2] = tested on: rat model of formalin-induced pain; details: in vivo, iv

## Huwentoxin-IV [HwTx-IV]
rNaV1.4
  inhibition (in words): far less potent
Rat NaV1.2
  inhibition (in words): inhibits
rNaV1.3
  inhibition (in words): inhibits
rNaV1.5
  inhibition (in words): far less potent

## CN1CC[C@]23c4c5ccc(O)c4O[C@H]2[C@@H](O)C=C[C@H]3[C@H]1C5 [morphine]
[1]
  effective dose, times lower than those usually required for analgesia: at least 20 times
[2]
  effective dose, times lower than those usually required for analgesia: at least 20 times
